# Assay results from US20140357633A1, “COMPOUNDS FOR INHIBITING THE INTERACTION OF BCL2 WITH BINDING PARTNERS” (NOVARTIS AG, priority 2011, published 2014).
# Legend:
# [1] = target: BCL-2 (binding to BAD peptide) (Homo sapiens, UniProt P10415); assay: SPR (Biacore) solution inhibition assay, BCL-2 binding to immobilized BAD peptide; conditions: biotinylated BAD peptide surface, 56 nM BCL-2, 25° C.; range = high and low IC50 values from multiple experiments; read-out: BCL2_SPR IC50 BAD
# Excerpt: (§1) The present method includes utility of a Surface plasmon resonance (SPR)-based biosensor (Biacore™′ GE Healthcare, Uppsala, Sweden) to characterize BCL-2 inhibitors.
# (§2) Biacore™ utilizes the phenomenon of surface plasmon resonance (SPR) to detect and measure binding interactions. In a typical Biacore experiment, one of the interacting molecules (ligand) is immobilized on a flexible dextran matrix while the interacting partner (analyte) is allowed to flow across that surface. A binding interaction results in an increase in mass on the sensor surface and a corresponding direct change in the refractive index of the medium in the vicinity of the sensor surface. Changes in refractive index or signal are recorded in resonance units (R.U.) Signal changes due to association and dissociation of complexes are monitored in a non-invasive manner, continuously and in real-time, the results of which are reported in the form of a sensorgram.
# (§3) The SPR assay is configured to examine solution inhibition of BCL-2 binding to peptide derivatized sensor surfaces to generate IC50 values as a measure of inhibitor potency.
# (§4) Biacore™ A100 (GE Healthcare, Uppsala, Sweden) was used to conduct all experiments reported herein. Sensor surface preparation and all interaction analyses experiments were performed at 25° C. Reagents were purchased from GE Healthcare. Running buffer containing 10 mM Hepes, pH7.4, 150 mM sodium chloride, 1.25 mM Dithiothreitol, 3% Dimethyl sulfoxide and 0.05% polysorbate 20 were utilized throughout all analyses.
# (§5) Biotinylated BAK, BAD and NOXA peptides were diluted to 10 nM in running buffer and captured onto a sensor surface pre-derivatized with streptavidin (sensor chip SA) to peptide surface densities in the range 50-100 R.U. Peptide captured surfaces were blocked with 500 μM PEO2-Biotin.
# (§6) Interaction analyses were performed by first equilibrating each sample within a 6 point three fold compound dilution series in the range 16 μM to […] with 56 nM BCL-2 for one hour during instrument start-up procedures. Protein compound mixtures were then injected over each peptide surface in parallel for 60 seconds at a flow-rate of 30 μL/min. 56 nM BCL-2 control samples were also prepared and run at regular intervals during the assay. Surface regeneration was performed at the end of each analysis cycle by two 30 second injections of 10 mM Glycine, pH 2.5, 1M Sodium Chloride, 0.05% polysorbate 20. Samples and control compound samples were run in duplicate and controls are also run at regular intervals during the assay to monitor surface and assay performance.
# (§7) Data analyses are carried out using Biacore™ A100 evaluation software v1.1 to validate assay quality. Binding level report points were used relative to BCL-2 control samples to calculate % inhibition values for each compound protein mixture. […] The range of data shown in table 1 represents the high and low IC50 values obtained from multiple experiments.
# [2] = target: BCL-2 (binding to BAK peptide) (Homo sapiens, UniProt P10415); assay: SPR (Biacore) solution inhibition assay, BCL-2 binding to immobilized BAK peptide; conditions: biotinylated BAK peptide surface, 56 nM BCL-2, 25° C.; range = high and low IC50 values from multiple experiments; read-out: BCL2_SPR IC50 BAK
# Sequence of BCL-2 (binding to BAK peptide) (P10415 whole entry): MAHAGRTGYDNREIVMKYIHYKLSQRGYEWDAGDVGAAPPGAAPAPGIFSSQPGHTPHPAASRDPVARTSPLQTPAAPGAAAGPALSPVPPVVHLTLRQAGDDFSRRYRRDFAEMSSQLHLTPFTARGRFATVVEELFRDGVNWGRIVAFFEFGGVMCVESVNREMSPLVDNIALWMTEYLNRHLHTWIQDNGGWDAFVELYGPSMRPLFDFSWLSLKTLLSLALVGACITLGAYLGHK
# Excerpt: as §1, §2, §3, §4, §5, §6, §7
# Sequence of BCL-2 (binding to BAD peptide) (P10415 whole entry): as above
Structure (SMILES),IC50 [1] [nM],IC50 [2] [nM]
"CCCCN(CCCC)C(=O)c1cc(C)n(-c2ccc(NC(=O)C(CC(=O)O)c3ccccc3)cc2C(=O)N2Cc3ccccc3C[C@H]2CO)n1 (stereo partly drawn) [Example 2, 4-((4-(3-(dibutylcarbamoyl)-5-methyl-1H-pyrazol-1-yl)-3-((S)-3-(hydroxymethyl)-1,2,3,4-tetrahydroisoquinoline-2-carbonyl)phenyl)amino)-4-oxo-3-phenylbutanoic acid]",30.3 to 53.6,27.5 to 44.8
"CCCCN(CCCC)C(=O)c1cc(C)n(-c2ccc(NC(=O)Cc3cccc4ccccc34)cc2C(=O)N2Cc3ccccc3C[C@H]2CO)n1 [Example 3, (S)—N,N-dibutyl-1-(2-(3-(hydroxymethyl)-1,2,3,4-tetrahydroisoquinoline-2-carbonyl)-4-(2-(naphthalen-1-yl)acetamido)phenyl)-5-methyl-1H-pyrazole-3-carboxamide]",48.9 to 58,44.4 to 52.4
CCCCN(CCCC)C(=O)c1cc(C)n(-c2ccc(NC(=O)COc3ccccc3)cc2C(=O)N2Cc3ccccc3C[C@H]2CO)n1 [Example 4],78.7 to 97.4,83.8 to 109
CCCCN(CCCC)C(=O)c1cc(C)n(-c2ccc(NC(=O)Cc3ccccc3)cc2C(=O)N2Cc3ccccc3C[C@H]2CO)n1 [Example 5],95.9 to 129,98 to 134
CCCCN(CCCC)C(=O)c1cc(C)n(-c2ccc(NC(=O)C(CC(=O)OC)c3ccccc3)cc2C(=O)N2Cc3ccccc3C[C@H]2CO)n1 (stereo partly shown) [Example 6],120 to 121,105 to 107
CCCCN(CCCC)C(=O)c1cc(C)n(-c2ccc(NC(=O)COc3ccc(Cl)cc3)cc2C(=O)N2Cc3ccccc3C[C@H]2CO)n1 [Example 7],198,142 to 161
CCCCN(CCCC)C(=O)c1cc(C)n(-c2ccc(NC(=O)CCc3ccccc3)cc2C(=O)N2Cc3ccccc3C[C@H]2CO)n1 [Example 8],198 to 260,191 to 287
CCCCN(CCCC)C(=O)c1cc(C)n(-c2ccc(NC(=O)OCC(C)C)cc2C(=O)N2Cc3ccccc3C[C@H]2CO)n1 [Example 9],499 to 606,394 to 452
CCCCN(CCCC)C(=O)c1cc(C)n(-c2ccc(NC(=O)Oc3ccccc3)cc2C(=O)N2Cc3ccccc3C[C@H]2CO)n1 [Example 10],501 to 522,283 to 308
CCCCN(CCCC)C(=O)c1cc(C)n(-c2ccc(NC(=O)OCC)cc2C(=O)N2Cc3ccccc3C[C@H]2CO)n1 [Example 11],591 to 599,550 to 557
CCCCN(CCCC)C(=O)c1cc(C)n(-c2ccc(NC(=O)OC)cc2C(=O)N2Cc3ccccc3C[C@H]2CO)n1 [Example 12],619 to 892,567 to 575
CCCCN(CCCC)C(=O)c1cc(C)n(-c2ccc(NC(C)=O)cc2C(=O)N2Cc3ccccc3C[C@H]2CO)n1 [Example 13],776 to 791,462 to 478
CCCCN(CCCC)C(=O)c1cc(C)n(-c2ccc(NC(=O)C(CC(=O)O)Cc3ccccc3)cc2C(=O)N2Cc3ccccc3C[C@H]2CO)n1 (stereo partly shown) [Example 15],53.4 to 59,44.2 to 47.7
CCCCN(CCCC)C(=O)c1cc(C)n(-c2ccc(NC(=O)CC(CC(=O)O)c3ccccc3)cc2C(=O)N2Cc3ccccc3C[C@H]2CO)n1 (stereo partly shown) [Example 16],119 to 126,95.7 to 103
CCCCN(CCCC)C(=O)c1cc(C)n(-c2ccc(NC(=O)CCC(=O)O)cc2C(=O)N2Cc3ccccc3C[C@H]2CO)n1 [Example 17],216 to 250,153 to 175
CCCCN(CCCC)C(=O)c1cc(C)n(-c2ccc(NC(=O)COc3ccc(C(C)C)cc3)cc2C(=O)N2Cc3ccccc3C[C@H]2CO)n1 [Example 18],192 to 252,185 to 265
CCCCN(CCCC)C(=O)c1cc(C)n(-c2ccc(NC(=O)CC(=O)O)cc2C(=O)N2Cc3ccccc3C[C@H]2CO)n1 [Example 19],363 to 365,241 to 251
CCCCN(CCCC)C(=O)c1cc(C)n(-c2ccc(NC(=O)COc3ccc(OCc4ccccc4)cc3)cc2C(=O)N2Cc3ccccc3C[C@H]2CO)n1 [Example 20],1220 to 1810,1220 to 2070

Structure (SMILES),IC50 [1] [nM],IC50 [2] [nM]
CCCCN(CCCC)C(=O)c1cc(C)n(-c2ccc(NC(=O)COc3ccc([N+](=O)[O-])cc3)cc2C(=O)N2Cc3ccccc3C[C@H]2CO)n1 [Example 21],2390 to 2670,1950 to 2170
CCCCN(CCCC)C(=O)c1cc(C)n(-c2ccc(NC(=O)COc3cccc(OC)c3)cc2C(=O)N2Cc3ccccc3C[C@H]2CO)n1 [Example 22],3450,2620 to 3490
CCCCN(CCCC)C(=O)c1cc(C)n(-c2ccc(NC(=O)COc3ccccc3Cl)cc2C(=O)N2Cc3ccccc3C[C@H]2CO)n1 [Example 23],4850 to 4930,3900 to 4170
CCCCN(CCCC)C(=O)c1cc(C)n(-c2ccc(NC(=O)COc3ccc(OC)cc3)cc2C(=O)N2Cc3ccccc3C[C@H]2CO)n1 [Example 24],8620 to 11900,6420 to 8640
CCCCN(CCCC)C(=O)c1cc(C)n(-c2ccc(NC(=O)C(Cc3ccccc3)C(=O)O)cc2C(=O)N2Cc3ccccc3C[C@H]2CO)n1 (stereo partly shown) [Example 25],67.6 to 67.8,63.4 to 72.2
CCCCN(CCCC)C(=O)c1cc(C)n(-c2ccc(NC(=O)C(Cc3ccccc3)(Cc3ccccc3)C(=O)O)cc2C(=O)N2Cc3ccccc3C[C@H]2CO)n1 [Example 26],46 to 63.1,43.7 to 54.5
CCCCN(CCCC)C(=O)c1cc(C)n(-c2ccc(NC(=O)C(CC(=O)N3CCCC3)c3ccccc3)cc2C(=O)N2Cc3ccccc3C[C@H]2CO)n1 (stereo partly shown) [Example 27],61.9 to 66.8,58.5 to 70.9
CCCCN(CCCC)C(=O)c1cc(C)n(-c2ccc(NC(=O)CC3CCCCC3)cc2C(=O)N2Cc3ccccc3C[C@H]2CO)n1 [Example 28],264 to 296,291 to 325
CCCCN(CCCC)C(=O)c1cc(C)n(-c2ccc(NC(=O)C(C)c3ccccc3)cc2C(=O)N2Cc3ccccc3C[C@H]2CO)n1 (stereo partly shown) [Example 29],162 to 183,181 to 191
CCCCN(CCCC)C(=O)c1cc(C)n(-c2ccc(NC(=O)C3(c4ccccc4)CC3)cc2C(=O)N2Cc3ccccc3C[C@H]2CO)n1 [Example 30],252 to 267,204 to 240
CCCCN(CCCC)C(=O)c1cc(C)n(-c2ccc(NC(=O)C(C)(C)c3ccccc3)cc2C(=O)N2Cc3ccccc3C[C@H]2CO)n1 [Example 31],132 to 146,119 to 144
CCCCN(CCCC)C(=O)c1cc(C)n(-c2ccc(NC(=O)COc3cccnc3)cc2C(=O)N2Cc3ccccc3C[C@H]2CO)n1 [Example 32],234 to 245,203 to 205
CCCCN(CCCC)C(=O)c1cc(C)n(-c2ccc(NC(=O)C(Cc3ccccc3)C(=O)O)cc2C(=O)N2Cc3ccccc3C[C@H]2CO)n1 (stereo partly shown) [Example 34],67.6 to 67.8,63.4 to 72.2
CCCCN(CCCC)C(=O)c1cc(C)n(-c2ccc(NC(=O)C(CC(=O)N(C)C)c3ccccc3)cc2C(=O)N2Cc3ccccc3C[C@H]2CO)n1 (stereo partly shown) [Example 36],–,111 to 144
CCCCN(CCCC)C(=O)c1cc(C)n(-c2ccc(NC(=O)C(C)CC(=O)O)cc2C(=O)N2Cc3ccccc3C[C@H]2CO)n1 (stereo partly shown) [Example 37],172 to 174,127 to 129
CCCCN(CCCC)C(=O)c1cc(C)n(-c2ccc(NC(=O)c3ccc(Cl)cc3I)cc2C(=O)N2Cc3ccccc3C[C@H]2CO)n1 [Example 82],1330 to 1470,–
CCCCN(CCCC)C(=O)c1cc(C)n(-c2ccc(NC(=O)C(C)C)cc2C(=O)N2Cc3ccccc3C[C@H]2CO)n1 [Example 163],–,481 to 495
